# Target: T1, human Kv72+3 channels (Homo sapiens, UniProt O43525+O43526)
# T1 construct: expressed in transfected cells; host or cells: HEK293
# Test: patch-clamp, HEK293 cell lines stably expressing human Kv7.2+3 channels
# Format: cell-based
# Settings: conc. 0.03 μM, −30 mV, 20 ms; current relative to baseline current defined as 100%
# Excerpt: The effect obtained by these channel activators is described as a percentage increase in baseline current at a given concentration. The baseline current is defined as 100%, and an increase in current is expressed relative to this, i.e. an increase from 1 nA to 1.2 nA is reported as 120%.
row,IK (%),SMILES
1,174,"CN(C)c1nc(NCc2ccc(F)cc2)ccc1NC(=O)CCc1cccc(F)c1 [Compound 5, N-[2-Dimethylamino-6-(4-fluoro-benzylamino)-pyridin-3-yl]-3-(3-fluoro-phenyl)-propionamide]"
2,233,"CN(C)c1nc(NCc2ccc(F)cc2)ccc1NC(=O)CC(C)(C)C [Compound 8, N-[2-Dimethylamino-6-(4-fluoro-benzylamino)-pyridin-3-yl]-3,3-dimethyl-butyramide]"
3,215,"CN(C)c1nc(NCc2ccc(F)cc2)ccc1NC(=O)Cc1ccc(F)c(F)c1 [Compound 1, N-[2-Dimethylamino-6-(4-fluoro-benzylamino)-pyridin-3-yl]-2-(3,4-difluoro-phenyl)-acetamide]"
4,162,"CN(C)c1nc(NCc2ccc(F)cc2)ccc1NC(=O)Cc1ccc(C(F)(F)F)c(F)c1 [Compound 3, N-[2-Dimethylamino-6-(4-fluoro-benzylamino)-pyridin-3-yl]-2-(3-fluoro-4-trifluoromethyl-phenyl)-acetamide]"

# Source: patent publication US20110003866A1, “NOVEL 2-DIMETHYLAMINO-3-AMIDO-6-AMINO-PYRIDINE DERIVATIVES USEFUL AS POTASSIUM CHANNEL ACTIVATORS” (priority 2007, published 2011)
